According to PMC6211832, “Screening of candidate substrates and coupling ions of transporters by thermostability shift assays” (eLife, 2018):
Blank lines part the entries; values can stand above or below the compound they belong to.

How the values were obtained:
[1] = target: T1, mitochondrial phosphate carrier of Tetrahymena thermophila (UniProt I7M3J0) (Tetrahymena thermophila, UniProt I7M3J0); assay: CPM thermostability shift assay; assay type: binding; settings: 2.5 mM compound, pH 6.0, 100 mM NaCl, tetraoleoyl cardiolipin
T1 construct: gene TTHERM_00535740; N-terminal His8 tag, TSED linker and Factor Xa site; expressed in S. cerevisiae W303-1B mitochondria, purified in lauryl maltose neopentyl glycol
T1 sequence (I7M3J0 entry or part of it): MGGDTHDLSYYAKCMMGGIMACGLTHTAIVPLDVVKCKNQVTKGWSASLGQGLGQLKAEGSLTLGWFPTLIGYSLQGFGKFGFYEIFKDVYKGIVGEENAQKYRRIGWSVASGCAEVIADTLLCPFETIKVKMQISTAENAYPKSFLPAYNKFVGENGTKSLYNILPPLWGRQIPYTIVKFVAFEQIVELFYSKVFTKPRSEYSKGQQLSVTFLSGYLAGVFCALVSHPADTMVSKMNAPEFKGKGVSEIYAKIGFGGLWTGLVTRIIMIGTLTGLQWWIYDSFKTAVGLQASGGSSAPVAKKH

[2] = target: T1, mitochondrial phosphate carrier of Tetrahymena thermophila; assay: competition of […]-orthophosphate uptake in proteoliposomes; assay type: biochemical; settings: 20 mM external glyoxylate, 20 μM [33P]-orthophosphate, pH 6.5, 20 mM internal compound
[3] = target: T2, mitochondrial ADP/ATP carrier (AAC) (Thermothelomyces thermophilus, UniProt G2QNH0); assay: CPM thermostability shift assay; assay type: binding; settings: 2.5 mM compound, pH 8.0, 100 mM NaCl, dodecyl-maltoside, tetraoleoyl cardiolipin
T2 construct: gene MYCTH_2316753; N-terminal His8 tag, TSED linker and Factor Xa site; expressed in S. cerevisiae WB.12 mitochondria, purified in dodecyl-maltoside
T2 sequence (G2QNH0 whole entry): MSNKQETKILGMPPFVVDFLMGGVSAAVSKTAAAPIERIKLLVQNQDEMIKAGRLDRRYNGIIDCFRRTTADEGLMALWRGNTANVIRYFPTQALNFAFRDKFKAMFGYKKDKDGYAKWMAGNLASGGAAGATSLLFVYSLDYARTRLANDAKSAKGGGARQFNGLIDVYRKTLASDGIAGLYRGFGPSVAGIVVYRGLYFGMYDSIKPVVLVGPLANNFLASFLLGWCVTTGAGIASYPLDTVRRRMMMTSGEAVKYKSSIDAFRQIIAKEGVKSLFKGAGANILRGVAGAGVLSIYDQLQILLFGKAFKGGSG
Source text: CPM thermostability shift assay on mitochondrial ADP/ATP carrier (AAC) | In the presence of ATP, ADP, and dADP the population was stabilized

[4] = target: T3, Mhp1 (Microbacterium maritypicum, UniProt D6R8X8); assay: CPM thermostability shift assay; assay type: binding; settings: 2 mM compound, 140 mM NaCl, pH 8.0, dodecyl-maltoside
T3 construct: gene hyuP; full length, C-terminal His6; plasmid pTTQ18, E. coli BL21(DE3), purified in dodecyl-maltoside
T3 sequence (D6R8X8 whole entry): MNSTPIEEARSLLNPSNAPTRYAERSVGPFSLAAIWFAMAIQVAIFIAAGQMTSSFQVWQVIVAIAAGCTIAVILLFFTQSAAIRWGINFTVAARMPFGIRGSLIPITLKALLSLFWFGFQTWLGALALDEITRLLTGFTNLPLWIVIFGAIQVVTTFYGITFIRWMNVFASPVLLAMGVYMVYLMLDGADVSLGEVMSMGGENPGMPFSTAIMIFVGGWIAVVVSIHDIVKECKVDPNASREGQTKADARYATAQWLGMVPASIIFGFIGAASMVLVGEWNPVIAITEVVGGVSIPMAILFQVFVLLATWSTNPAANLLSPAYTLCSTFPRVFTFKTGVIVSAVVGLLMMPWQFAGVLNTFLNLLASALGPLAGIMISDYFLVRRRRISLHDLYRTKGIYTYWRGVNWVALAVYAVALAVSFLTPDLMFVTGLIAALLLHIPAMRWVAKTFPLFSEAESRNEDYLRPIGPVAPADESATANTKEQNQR

[5] = target: T4, GalP (Escherichia coli, UniProt P0AEP1); assay: CPM thermostability shift assay; assay type: binding; settings: 50 mM compound, dodecyl-maltoside
T4 construct: full length, C-terminal His6; plasmid pGP1 in E. coli JM1100, purified in dodecyl-maltoside
T4 sequence (P0AEP1 whole entry): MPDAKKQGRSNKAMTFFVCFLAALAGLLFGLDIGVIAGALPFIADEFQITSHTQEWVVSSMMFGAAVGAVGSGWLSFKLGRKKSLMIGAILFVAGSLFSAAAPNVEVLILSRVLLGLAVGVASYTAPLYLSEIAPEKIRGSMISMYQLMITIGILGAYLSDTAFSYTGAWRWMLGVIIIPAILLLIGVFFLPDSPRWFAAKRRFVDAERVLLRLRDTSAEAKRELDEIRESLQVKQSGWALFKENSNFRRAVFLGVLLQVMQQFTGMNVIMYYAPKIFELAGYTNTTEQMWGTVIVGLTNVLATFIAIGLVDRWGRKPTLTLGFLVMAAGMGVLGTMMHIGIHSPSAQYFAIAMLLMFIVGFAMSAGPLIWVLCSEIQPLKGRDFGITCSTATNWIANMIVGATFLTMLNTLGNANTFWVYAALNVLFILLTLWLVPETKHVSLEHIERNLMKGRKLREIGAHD

[6] = target: T4, GalP; assay: CPM thermostability shift assay; assay type: binding; settings: 50 mM compound, dodecyl-maltoside; remark: listed apart in the source

Compound: O=CC(=O)O [glyoxylate]
dTm [1]: 3.6 ± 0.8 °C | inhibition of phosphate uptake [2]: in competition assays glyoxylate abolished uptake

Compound: Nc1ncnc2c1ncn2[C@H]1C[C@H](O)[C@@H](COP(=O)(O)OP(=O)(O)O)O1 [dADP]
dTm [3]: 1.8 ± 0.2 °C

Compound: OC[C@H]1OC(O)C[C@@H](O)[C@@H]1O (stereo partly drawn) [2-deoxy-D-glucose]
dTm [5]: to a lesser extent by D-talose, 2-deoxy-D-glucose, 6-deoxy-D-glucose

Compound: CC(=O)OP(=O)(O)O [acetyl-phosphate]
dTm [1]: 3.2 ± 0.5 °C

Compound: OC[C@H]1OC(O)[C@@H](O)[C@@H](O)[C@H]1O (stereo partly drawn) [D-talose]
dTm [5]: to a lesser extent by D-talose, 2-deoxy-D-glucose, 6-deoxy-D-glucose

Compound: O=C1NC(=O)[C@H](Cc2ccccc2)N1 [L-BH, 5-benzyl-L-hydantoin]
dTm [4]: 13.6 ± 1.2 °C

Compound: C[C@H]1OC(O)[C@H](O)[C@@H](O)[C@@H]1O (stereo partly drawn) [6-deoxy-D-glucose]
dTm [5]: to a lesser extent by D-talose, 2-deoxy-D-glucose, 6-deoxy-D-glucose

Compound: O=C1NC(=O)C(C=CBr)N1 (stereo not drawn) [BVH, 5-bromovinylhydantoin]
dTm [4]: 11.9 ± 1.1 °C

Continued, values first:

dTm [1]: 2.3 ± 0.2 °C
Compound: C=C(OP(=O)(O)O)C(=O)O [phosphoenolpyruvate]

dTm ([4]; inhibitor): 15.6 ± 1.7 °C
Compound: O=C1NC(=O)[C@H](Cc2ccc3ccccc3c2)N1 [L-NMH, 5-(2-naphthylmethyl)-L-hydantoin]

dTm [3]: 7.2 ± 0.2 °C
Compound: Nc1ncnc2c1ncn2[C@@H]1O[C@H](COP(=O)(O)OP(=O)(O)OP(=O)(O)O)[C@@H](O)[C@H]1O [ATP]

dTm [6]: 4.2 ± 0.5 °C
Compound: OC[C@H]1OC(O)[C@H](O)[C@@H](O)[C@@H]1O (stereo partly drawn) [D-glucose]

dTm [6]: 2.1 ± 0.6 °C
Compound: OC[C@H]1OC(O)[C@H](O)[C@@H](O)[C@H]1O (stereo partly drawn) [D-galactose]

dTm [3]: 6.0 ± 0.5 °C
Compound: Nc1ncnc2c1ncn2[C@@H]1O[C@H](COP(=O)(O)OP(=O)(O)O)[C@@H](O)[C@H]1O [ADP]
